The text below walks through data of patent US20250136586A1, “Substituted 7-(Pyrimidin-4-yl)Quinolin-4(1H)-One Compounds as Cyclin Dependent Kinase Inhibitors” (BeiGene, Ltd., priority 2022, published 2025).

In one experiment the target is CDK4/Cyclin D1 (Homo sapiens (Human), UniProt P11802). Kind of experiment: TR-FRET kinase inhibition assay, CDK4/Cyclin D1. The class given is biochemical. The following applies: 1 mM ATP, 0.15 μM Rb (Ser780)-biotin substrate, read-out: CDK4D1 IC50. Summed up: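 Kinase was preincubated with compound for 60 min at room temperature, then reacted with ATP and Rb (Ser780)-biotin substrate for 120 min. IC50 came from a four-parameter logistic fit.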
(In general: Time-resolved FRET reads energy transfer from a long-lived donor to a nearby acceptor.)

The next experiment has as its target CDK6/Cyclin D3 (Homo sapiens (Human), UniProt Q00534). The experiment can be described thus: TR-FRET kinase inhibition assay, CDK6/Cyclin D3. The class given is biochemical. The following applies: 1 mM ATP, 0.15 μM Rb (Ser780)-biotin substrate, read-out: CDK6D3 IC50. Summed up:
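Kinase preincubated 60 min at room temperature with 0–10 μM compound; reaction started with 1 mM ATP and 0.15 μM Rb (Ser780)-biotin, run 120 min at room temperature in HEPES pH 7.0, 50 mM MgCl2. pRb detected by TR-FRET (665/620 nm ratio); IC50 from four-parameter logistic fit.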

CDK4/Cyclin D1, sequence (P11802 whole entry): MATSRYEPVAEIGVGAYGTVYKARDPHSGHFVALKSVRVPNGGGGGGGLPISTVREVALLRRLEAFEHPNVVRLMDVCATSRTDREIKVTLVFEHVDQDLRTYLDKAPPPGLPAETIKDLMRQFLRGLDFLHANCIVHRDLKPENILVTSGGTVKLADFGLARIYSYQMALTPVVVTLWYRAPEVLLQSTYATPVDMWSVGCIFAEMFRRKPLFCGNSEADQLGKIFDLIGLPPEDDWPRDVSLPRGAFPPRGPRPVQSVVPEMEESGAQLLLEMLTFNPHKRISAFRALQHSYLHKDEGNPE
CDK4/Cyclin D1, sequence (P24385 whole entry partner): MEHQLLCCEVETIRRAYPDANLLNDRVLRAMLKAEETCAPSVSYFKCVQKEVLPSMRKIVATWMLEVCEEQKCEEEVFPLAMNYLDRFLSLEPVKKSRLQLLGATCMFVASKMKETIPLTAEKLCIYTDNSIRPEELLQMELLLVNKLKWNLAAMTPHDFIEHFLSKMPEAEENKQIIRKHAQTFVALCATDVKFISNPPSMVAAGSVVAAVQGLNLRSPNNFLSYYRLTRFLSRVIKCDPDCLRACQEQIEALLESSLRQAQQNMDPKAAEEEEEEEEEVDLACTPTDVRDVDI
CDK6/Cyclin D3, sequence (Q00534 whole entry): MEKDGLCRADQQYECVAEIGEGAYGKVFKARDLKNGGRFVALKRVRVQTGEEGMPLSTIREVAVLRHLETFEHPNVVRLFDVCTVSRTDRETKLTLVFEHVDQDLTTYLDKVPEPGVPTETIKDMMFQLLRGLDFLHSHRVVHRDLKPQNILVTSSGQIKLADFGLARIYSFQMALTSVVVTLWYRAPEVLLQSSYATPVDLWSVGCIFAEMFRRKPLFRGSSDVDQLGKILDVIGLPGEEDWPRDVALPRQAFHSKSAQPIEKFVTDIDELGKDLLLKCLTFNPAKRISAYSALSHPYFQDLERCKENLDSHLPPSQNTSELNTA
CDK6/Cyclin D3, sequence (P30281 whole entry partner): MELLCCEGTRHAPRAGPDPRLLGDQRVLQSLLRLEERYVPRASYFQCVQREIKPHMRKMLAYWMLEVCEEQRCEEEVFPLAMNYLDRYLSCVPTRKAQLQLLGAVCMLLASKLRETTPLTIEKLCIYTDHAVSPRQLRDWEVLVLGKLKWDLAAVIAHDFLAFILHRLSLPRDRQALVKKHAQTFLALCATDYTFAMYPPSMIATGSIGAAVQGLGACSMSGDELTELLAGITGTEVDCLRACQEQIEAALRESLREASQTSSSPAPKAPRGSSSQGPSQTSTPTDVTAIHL

As for `CNC(=O)c1cc(=O)c2c(Cl)cc(-c3nc(N[C@@H]4CCOC[C@H]4O)ncc3F)cc2n1C(C)C` [Example 36, 5-chloro-7-(5-fluoro-2-(((3S,4R)-3-hydroxytetrahydro-2H-pyran-4-yl)amino)pyrimidin-4-yl)-1-isopropyl-N-methyl-4-oxo-1,4-dihydroquinoline-2-carboxamide], the IC50 (in general, the concentration that gives 50% inhibition) on CDK4/Cyclin D1 was 57 nM; on CDK6/Cyclin D3, 553 nM.

`CNC(=O)c1cc(=O)c2c(F)cc(-c3nc(N[C@@H]4CCOC[C@H]4O)ncc3F)cc2n1C(C)C` [Example 19, 5-fluoro-7-(5-fluoro-2-(((3S,4R)-3-hydroxytetrahydro-2H-pyran-4-yl)amino)pyrimidin-4-yl)-1-isopropyl-N-methyl-4-oxo-1,4-dihydroquinoline-2-carboxamide]: the IC50 is 24 nM at CDK4/Cyclin D1 and 504 nM on CDK6/Cyclin D3.

Regarding `Cc1c(CNC(C)C)n(C(C)C)c2cc(-c3nc(N[C@@H]4CCOC[C@H]4O)ncc3F)ccc2c1=O` [Example 110, 7-(5-fluoro-2-(((3S,4R)-3-hydroxytetrahydro-2H-pyran-4-yl)amino)pyrimidin-4-yl)-1-isopropyl-2-((isopropylamino)methyl)-3-methylquinolin-4(1H)-one], the IC50 at CDK4/Cyclin D1 stood at 9.3 nM; at CDK6/Cyclin D3, 567 nM.

`CC(C)n1c(CN2CCCC2)cc(=O)c2ccc(-c3nc(N[C@@H]4CCOC[C@H]4O)ncc3F)cc21` [Example 100, 7-(5-fluoro-2-(((3S,4R)-3-hydroxytetrahydro-2H-pyran-4-yl)amino)pyrimidin-4-yl)-1-isopropyl-2-(pyrrolidin-1-ylmethyl)quinolin-4(1H)-one]: the IC50 is 19 nM at CDK4/Cyclin D1 and 760 nM at CDK6/Cyclin D3.

As to `Cc1cc(=O)c2ccc(-c3nc(N[C@@H]4CCOC[C@H]4O)ncc3F)cc2n1C(C)C` [Example 6, 7-(5-fluoro-2-(((3S,4R)-3-hydroxytetrahydro-2H-pyran-4-yl)amino)pyrimidin-4-yl)-1-isopropyl-2-methylquinolin-4(1H)-one], the IC50 at CDK4/Cyclin D1 is 15 nM; at CDK6/Cyclin D3, 345 nM.

For the compound `Cc1c(C2CCCN2)n(C(C)C)c2cc(-c3nc(N[C@@H]4CCOC[C@H]4O)ncc3F)ccc2c1=O` (stereo partly drawn) [Example 389, 7-(5-fluoro-2-(((3S,4R)-3-hydroxytetrahydro-2H-pyran-4-yl)amino)pyrimidin-4-yl)-1-isopropyl-3-methyl-2-(pyrrolidin-2-yl)quinolin-4(1H)-one], the IC50 turned out to be 1.6 nM on CDK4/Cyclin D1 and 220 nM at CDK6/Cyclin D3.

As for `CC(C)n1c(CNC2CCC2)cc(=O)c2ccc(-c3nc(N[C@@H]4CCOC[C@H]4O)ncc3F)cc21` [Example 76, 2-((cyclobutylamino)methyl)-7-(5-fluoro-2-(((3S,4R)-3-hydroxytetrahydro-2H-pyran-4-yl)amino)pyrimidin-4-yl)-1-isopropylquinolin-4(1H)-one], the values for the IC50 at CDK4/Cyclin D1 and at CDK6/Cyclin D3 were 28 nM and 588 nM, respectively.

`CC(C)n1c(CN2CCC[C@]3(CCNC3=O)C2)cc(=O)c2ccc(-c3nc(N[C@@H]4CCOC[C@H]4O)ncc3F)cc21` [Example 105, (S)-7-((7-(5-fluoro-2-(((3S,4R)-3-hydroxytetrahydro-2H-pyran-4-yl)amino)pyrimidin-4-yl)-1-isopropyl-4-oxo-1,4-dihydroquinolin-2-yl)methyl)-2,7-diazaspiro[4.5]decan-1-one]: the figures for the IC50 on CDK4/Cyclin D1 and on CDK6/Cyclin D3 were 4.1 nM and 291 nM, respectively.

Take `Cc1c(CO)n(C(C)C)c2cc(-c3nc(N[C@@H]4CCOC[C@H]4O)ncc3F)ccc2c1=O` [Example 119, 7-(5-fluoro-2-(((3S,4R)-3-hydroxytetrahydro-2H-pyran-4-yl)amino)pyrimidin-4-yl)-2-(hydroxymethyl)-1-isopropyl-3-methylquinolin-4(1H)-one]: the figures for the IC50 at CDK4/Cyclin D1 and at CDK6/Cyclin D3 were 9.1 nM and 273 nM, respectively.

Take `Cc1c(CN[C@H]2C[C@H](F)C2)n(C(C)C)c2cc(-c3nc(N[C@@H]4CCOC[C@H]4O)ncc3F)ccc2c1=O` [Example 111, 7-(5-fluoro-2-(((3S,4R)-3-hydroxytetrahydro-2H-pyran-4-yl)amino)pyrimidin-4-yl)-2-((((1r,3R)-3-fluorocyclobutyl)amino)methyl)-1-isopropyl-3-methylquinolin-4(1H)-one]: the IC50 on CDK4/Cyclin D1 came out at 16 nM; on CDK6/Cyclin D3 it was 352 nM.

With `Cc1cn(C(C)C)c2cc(-c3nc(N[C@@H]4CCOC[C@H]4O)ncc3F)ccc2c1=O` [Example 2, 7-(5-fluoro-2-(((3S,4R)-3-hydroxytetrahydro-2H-pyran-4-yl)amino)pyrimidin-4-yl)-1-isopropyl-3-methylquinolin-4(1H)-one], the IC50 on CDK4/Cyclin D1 came to 68 nM; at CDK6/Cyclin D3, 1220 nM.

Consider `CC(C)n1c(CN2[C@H](C)COC[C@H]2C)cc(=O)c2ccc(-c3nc(N[C@@H]4CCOC[C@H]4O)ncc3F)cc21` [Example 106, 2-(((3R,5R)-3,5-dimethylmorpholino)methyl)-7-(5-fluoro-2-(((3S,4R)-3-hydroxytetrahydro-2H-pyran-4-yl)amino)pyrimidin-4-yl)-1-isopropylquinolin-4(1H)-one], for which the IC50 on CDK4/Cyclin D1 came to 4.8 nM; on CDK6/Cyclin D3, 298 nM.

Consider `CC(C)n1c(CNC2CC(F)(F)C2)cc(=O)c2ccc(-c3nc(N[C@@H]4CCOC[C@H]4O)ncc3F)cc21` [Example 77, 2-(((3,3-difluorocyclobutyl)amino)methyl)-7-(5-fluoro-2-(((3S,4R)-3-hydroxytetrahydro-2H-pyran-4-yl)amino)pyrimidin-4-yl)-1-isopropylquinolin-4(1H)-one], for which the IC50 at CDK4/Cyclin D1 is 26 nM; on CDK6/Cyclin D3, 598 nM.

Turning to `Cc1c(CNC2CC2)n(C(C)C)c2cc(-c3nc(N[C@@H]4CCOC[C@H]4O)ncc3F)ccc2c1=O` [Example 109, 2-((cyclopropylamino)methyl)-7-(5-fluoro-2-(((3S,4R)-3-hydroxytetrahydro-2H-pyran-4-yl)amino)pyrimidin-4-yl)-1-isopropyl-3-methylquinolin-4(1H)-one], the IC50 came to 6.2 nM on CDK4/Cyclin D1 and 211 nM at CDK6/Cyclin D3.

For the compound `Cc1c(CN2CCC(C)(O)CC2)n(C(C)C)c2cc(-c3nc(N[C@@H]4CCOC[C@H]4O)ncc3F)ccc2c1=O` [Example 103, 7-(5-fluoro-2-(((3S,4R)-3-hydroxytetrahydro-2H-pyran-4-yl)amino)pyrimidin-4-yl)-2-((4-hydroxy-4-methylpiperidin-1-yl)methyl)-1-isopropyl-3-methylquinolin-4(1H)-one], the IC50 is 12 nM at CDK4/Cyclin D1 and 516 nM at CDK6/Cyclin D3.

As for `CC(C)n1c(C(=O)N2CCOCC2)cc(=O)c2ccc(-c3nc(N[C@@H]4CCOC[C@H]4O)ncc3Cl)cc21` [Example 13, 7-(5-chloro-2-(((3S,4R)-3-hydroxytetrahydro-2H-pyran-4-yl)amino)pyrimidin-4-yl)-1-isopropyl-2-(morpholine-4-carbonyl)quinolin-4(1H)-one], the IC50 at CDK4/Cyclin D1 stood at 93 nM; on CDK6/Cyclin D3, 539 nM.

Turning to `CC(C)n1c(CNc2ccccc2)cc(=O)c2ccc(-c3nc(N[C@@H]4CCOC[C@H]4O)ncc3F)cc21` [Example 94, 7-(5-fluoro-2-(((3S,4R)-3-hydroxytetrahydro-2H-pyran-4-yl)amino)pyrimidin-4-yl)-1-isopropyl-2-((phenylamino)methyl)quinolin-4(1H)-one], the IC50 at CDK4/Cyclin D1 was 11 nM; on CDK6/Cyclin D3, 165 nM.

Regarding `Cc1c(CN2CCOCC23CC3)n(C(C)C)c2cc(-c3nc(N[C@@H]4CCOC[C@H]4O)ncc3F)ccc2c1=O` [Example 117, 2-((7-oxa-4-azaspiro[2.5]octan-4-yl)methyl)-7-(5-fluoro-2-(((3S,4R)-3-hydroxytetrahydro-2H-pyran-4-yl)amino)pyrimidin-4-yl)-1-isopropyl-3-methylquinolin-4(1H)-one], the IC50 at CDK4/Cyclin D1 was 1.9 nM; on CDK6/Cyclin D3, 96.9 nM.

Regarding `CC(C)n1c(CN2CCC(C)(C)CC2)cc(=O)c2ccc(-c3nc(N[C@@H]4CCOC[C@H]4O)ncc3F)cc21` [Example 97, 2-((4,4-dimethylpiperidin-1-yl)methyl)-7-(5-fluoro-2-(((3S,4R)-3-hydroxytetrahydro-2H-pyran-4-yl)amino)pyrimidin-4-yl)-1-isopropylquinolin-4(1H)-one], the IC50 came to 64 nM on CDK4/Cyclin D1 and 2050 nM on CDK6/Cyclin D3.

In the case of `CC(C)n1c(CNC2CCCC2)cc(=O)c2ccc(-c3nc(N[C@@H]4CCOC[C@H]4O)ncc3F)cc21` [Example 66, 2-((cyclopentylamino)methyl)-7-(5-fluoro-2-(((3S,4R)-3-hydroxytetrahydro-2H-pyran-4-yl)amino)pyrimidin-4-yl)-1-isopropylquinolin-4(1H)-one], the IC50 turned out to be 21 nM on CDK4/Cyclin D1 and 651 nM at CDK6/Cyclin D3.

As for `CC(C)n1c(CN2CCC(C#N)CC2)cc(=O)c2ccc(-c3nc(N[C@@H]4CCOC[C@H]4O)ncc3F)cc21` [Example 37, 1-((7-(5-fluoro-2-(((3S,4R)-3-hydroxytetrahydro-2H-pyran-4-yl)amino)pyrimidin-4-yl)-1-isopropyl-4-oxo-1,4-dihydroquinolin-2-yl)methyl)piperidine-4-carbonitrile], the IC50 is 22 nM on CDK4/Cyclin D1 and 682 nM at CDK6/Cyclin D3.

For the compound `CC(C)n1c(CN2C3COCC2C3)cc(=O)c2ccc(-c3nc(N[C@@H]4CCOC[C@H]4O)ncc3F)cc21` [Example 68, 2-((3-oxa-6-azabicyclo[3.1.1]heptan-6-yl)methyl)-7-(5-fluoro-2-(((3S,4R)-3-hydroxytetrahydro-2H-pyran-4-yl)amino)pyrimidin-4-yl)-1-isopropylquinolin-4(1H)-one], the values for the IC50 at CDK4/Cyclin D1 and at CDK6/Cyclin D3 were 34 nM and 1220 nM, respectively.
